In patent US5500444A, “Cardioprotective tocopherol analogs” (Hoechst Marion Roussel, Inc., priority 1994, dated 1996):
Several values for one entry are separate records, joined by “and”; a condition that tells them apart may be missing. Identical values can stand only once. Like-named read-outs stand apart in the source and are kept apart here.

Assays:
[1] = tested on: ligation-induced infarcted and reperfused rats; assay: Cardioprotective effects in ligation-induced infarcted and reperfused rats; type: in vivo; conditions: treated group, 10 mg/kg/h i.v., individual rats No. 1-10
Experimental: 2-(3,4-Dihydro-2,5,7,8-tetramethyl-6-methylcarbonyloxy-2H-1-benzopyran-2-yl)ethyl-N,N,N-trimethylammonium bromide was evaluated in ligation-induced infarcted and reperfused rats as follows. One of two groups of rats was infused intravenously with a solution of test compound in saline at a rate of 2.3 ml/h (10 mg/kg/h). The control group was infused with saline at the same rate. After 10 min of drug infusion, coronary arteries were ligated surgically for 60 min, ligation was loosened to allow reperfusion for 30 min. The ligation was retied and a dye (Evans Blue) was injected. The animals were sacrificed and the heart ventricles were removed and weighed. The unstained tissue was dissected and weighed; this represents the "area at risk", i.e. the area that was deprived of blood supply by ligation. To determine the infarcted area, the tissue was incubated with 2,3,5-triphenyltetrazolium chloride. Infarcted tissue became light colored and could be dissected and weighed. Thus, for each rat that survived the ligation a measurement of "area at risk" and of "infarcted area" was obtained and the ratio was calculated as given in Tables II and III.

[2] = superoxide radicals generated by xanthine oxidase/xanthine, detected by reduction of nitro blue tetrazolium; type: biochemical; conditions: for IC50: read-out: IC50 (superoxide radical scavenging); for superoxide radicals scavenged: at 200 μM
Experimental: In another evaluation, superoxide radicals were generated by 4 mU of xanthine oxidase in the presence of 0.1 mM xanthine and detected by reduction of 40 μM nitro blue tetrazolium to the diformazan dye in a spectrophotometric assay as described by C. Beauchamp and I. Fridovich, (1971) Analyt. Biochem. 44, 276-287. 30 U of superoxide dismutase inhibited this reduction by 90% which, therefore, was due to superoxide radicals. […] Trolox is a commercial antioxidant and is a known potent superoxide radical scavenger. For comparison, D,L-penicillamine and N-2-mercaptopropionyl glycine at 200 μM scavenged only 14% of the superoxide radicals. Neither of the scavengers inhibited xanthine oxidase, when tested at 200 μM.

human α1 Pi = assay: Protection of α1 Pi from leukocyte-mediated inactivation (residual elastase inhibitory capacity); type: cell-based; conditions: for Relative PC50: concentration to protect 50% of elastase inhibitory capacity of α1 Pi, mean ± S.D. (n = 3) for Compound A; for inactivation of α1 Pi: zymosan-stimulated human leukocytes
Source text: Stimulated human leukocytes release radicals and other oxygen metabolites, which, during inflammation, act as microbicidal agents. At the same time, they release proteolytic enzymes, such as elastase, which are also microbicidal but potentially threaten the connective tissue of the host. An endogenous α1 -proteinase inhibitor (α1 Pi) normally protects the host tissue from proteolytic digestion. α1 Pi is, however, inactivated by the leukocyte-derived oxidants. The inactivation of α1 Pi is antagonized by the disclosed radical scavengers 2-(3,4-dihydro-6-hydroxy-2,5,7,8-tetramethyl-2H-1-benzopyran-2-yl)-N,N,N-trimethylethanammonium, 4-methylbenzylsulfonate (Compound A) and 3,4-dihydro-2-(2-dimethylaminoethyl)-2,5,7,8-tetramethyl-2H-1-benzopyran-6-ol (Compound B). The concentration needed to protect 50% of the elastase inhibitory capacity of α1 Pi (PC50) depends on the amount of stimulated leukocytes present.
The procedure described by Skosey and Chow was followed (see Skosey, J. L. and Chow, D. C. (1985) In Handbook of Methods for Oxygen Radical Research (Greenwald, R. A., ed.) pp. 413-416, CRC Press, Boca Raton). In short, human α1 Pi was incubated with zymosan-stimulated human peripheral-blood leukocytes in the absence or presence of the scavengers. The amount of α1 Pi protected from oxidative inactivation was determined by its residual elastase inhibitory capacity.

[3] = oral absorption and excretion; type: in vivo
β2 -receptors = conditions: infarcted reperfused heart, rats; Lukovic et al., 1992; cited from earlier work
[4] = tested on: rats subjected to myocardial ischemia and reperfusion; conditions: Lukovic et al., 1992; cited from earlier work
hyperlipidemic rabbits = conditions: Carew et al., 1987; cited from earlier work
[5] = tested on: canine myocardial reperfusion injury; conditions: Lucchesi and coworkers; cited from earlier work
[6] = autoxidation of 1-epinephrine (superoxide radical reduction, Misra and Fridovich); type: biochemical; conditions: 1-epinephrine 1×10^-4 M, EDTA 1×10^-4 M, 30° C.; read-out: 50% inhibition of the autoxidation rate (ID50)
Experimental: 2-(3,4-dihydro-6-hydroxy-2,5,7,8-tetramethyl-2H-1-benzopyran-2-yl)ethyl-N,N,N-trimethylammonium bromide, described in Example 1, was evaluated for its ability to reduce superoxide radicals in an assay described by H. P. Misra and J. Fridovich, 1972, J. Biol. Chem. 247, 3170-5. In this assay, the rate of autoxidation of 1-epinephrine (1×10^-4 M) in the presence of EDTA (1×10^-4 M) at 30° C. is followed spectrophotometrically following the increase of absorbance at 480 mn.
Misra and Fridovich report that bovine superoxide dismutase gave 50% inhibition at 46mg per ml.

[7] = Affinity for cardiac tissue (radioactivity in heart and blood after intravenous 14C-labelled compound); type: in vivo, rats; conditions: rat, 0.91 mg base/kg i.v.
Experimental: Following the procedure described in Example 9, but using ^14 C-methyl p-toluenesulfonate in place of "cold material", ^14 C-labelled 2-(3,4-dihydro-2,5,7,8-tetramethyl-6-methylcarbonyloxy-2H-1-benzopyranan-2-yl)ethyl-N,N,N-tri-^14 C-methylammonium p-toluenesulfonate was synthesized. The preparation was diluted with "cold material" to 11.74 μCi/mg base.
24 rats were given 0.91 mg base/kg by intravenous route (by canula into the jugular vein). The animals were sacrificed in groups of 3 at the time periods indicated in Table I. Immediately before sacrifice a 0.5 ml blood sample was taken from an indwelling catheter in the carotid artery. The hearts were removed, blotted and weighed. The samples of tissue and blood were solubiized with Luma Solve (a quaternary ammonium hydroxide preparation) and radioactivity was determined in a scintillation counter.

[8] = 4 mU xanthine oxidase, 0.1 mM xanthine, 40 μM nitro blue tetrazolium

**Q.** For `CC(=O)Oc1c(C)c(C)c2c(c1C)CCC(C)(CC[N+](C)(C)C)O2.[Br-]` (centres unmarked) [Example 2, 2-(3,4-Dihydro-2,5,7,8-tetramethyl-6-methylcarbonyloxy-2H-1-benzopyran-2-yl)ethyl-N,N,N-trimethylammonium bromide], which Tissue at risk [1] is on record?
**A.** 307 mg and 255 mg and 176 mg and 381 mg and 310 mg and 207 mg and 395 mg and 229 mg and 50 mg and 285 mg

**Q.** What does the source list for `Cc1c(C)c2c(c(C)c1O)CCC(C)(CCN(C)C)O2` (centres unmarked) [Compound B, 3,4-dihydro-2-(2-dimethylaminoethyl)-2,5,7,8-tetramethyl-2H-1-benzopyran-6-ol]?
**A.** IC50 [2, 8]: 28 µM; Relative PC50 (human α1 Pi): 7.3 μM/μg leukocyte protein; inactivation of α1 Pi (human α1 Pi): antagonized

**Q.** Which IC50 [2, 8] does the source give for `Cc1c(C)c2c(c(C)c1O)CCC(C)(CC[N+](C)(C)C)O2` (centres unmarked) [Compound A, 3,4-Dihydro-6-hydroxy-N,,N,N,2,5,7,8-heptamethyl-2H-1-benzopyran-2-ethanaminium 4-methylbenzenesulfonate] here?
**A.** 28 µM

**Q.** And the “Relative PC50” value (human α1 Pi)?
**A.** 4.5 ± 1 μM/μg leukocyte protein

**Q.** What about the “inactivation of α1 Pi” value (human α1 Pi) of the same compound?
**A.** antagonized

**Q.** What about the oral absorption [3] of the same compound?
**A.** not or ally absorbed

**Q.** What about the “recovery in the feces” value [3] of the same compound?
**A.** found unchanged in the feces

**Q.** What about the oral absorption ([3]; listed as Example 11) of the same compound?
**A.** not orally absorbed

**Q.** And the “density of β2 -receptors” value (β2 -receptors)?
**A.** further increased the density of β2 -receptors

**Q.** And the cardiac output [4]?
**A.** enhanced

**Q.** What about the contractility [4] of the same compound?
**A.** enhanced

**Q.** For `CC(C)(Sc1cc(C(C)(C)C)c(O)c(C(C)(C)C)c1)Sc1cc(C(C)(C)C)c(O)c(C(C)(C)C)c1` [probucol], which anti-atherosclerotic effect (hyperlipidemic rabbits) is on record?
**A.** marked anti-atherosclerotic effect

**Q.** With superoxide dismutase as the compound, how does the “inhibition of nitro blue tetrazolium reduction” value ([2]; 30 U superoxide dismutase, 4 mU xanthine oxidase, 0.1 mM xanthine, 40 μM nitro blue tetrazolium) read?
**A.** 90%

**Q.** And the “canine myocardial reperfusion injury” value [5]?
**A.** reduce canine myocardial reperfusion injury

**Q.** Which results are given for `CC(C)(S)C(N)C(=O)O` (racemic) [D,L-penicillamine, reference compound]?
**A.** IC50 [6]: 73 µM; superoxide radicals scavenged [2]: 14%

**Q.** With `Cc1c(C)c2c(c(C)c1O)CCC(C)(CC[N+](C)(C)C)O2` (racemic) [Example 1, 2-(3,4-Dihydro-6-hydroxy-2,5,7,8-tetramethyl-2H-1-benzopyran-2-yl)ethyl-N,N,N-trimethylammonium bromide] as the compound, how does the IC50 [6] read?
**A.** 138 ± 14 µM

**Q.** Which superoxide radicals scavenged [2] does the source give for `CC(S)C(=O)NCC(=O)O` (centres unmarked) [N-2-mercaptopropionyl glycine, reference compound] here?
**A.** 14%

**Q.** And the “canine myocardial reperfusion injury” value [5]?
**A.** reduce canine myocardial reperfusion injury

**Q.** What does the source list for `CC(=O)Oc1c(C)c(C)c2c(c1C)CCC(C)(CC[N+](C)(C)C)O2.Cc1ccc(S(=O)(=O)[O-])cc1` (centres unmarked) [Example 9, 2-(3,4-Dihydro-2,5,7,8-tetramethyl-6-methylcarbonyloxy-2H-1-benzopyran-2-yl)ethyl-N,N,N-trimethylammonium p-toluenesulfonate]?
**A.** affinity for heart tissue [7]: marked affinity for heart tissue; Ratio heart/blood ([7]; 5 min): 3.05 ± 1.46; µg equiv/g ([7]; 5 min): 1.59 ± 0.22 µg equiv/g; µg equiv/mL ([7]; 5 min): 0.434 ± 0.351 µg equiv/mL; Ratio heart/blood ([7]; 15 min): 6.90 ± 8.34; µg equiv/g ([7]; 15 min): 1.73 ± 0.422 µg equiv/g; µg equiv/mL ([7]; 15 min): 0.59 ± 0.295 µg equiv/mL; Ratio heart/blood ([7]; 30 min): 17.33 ± 5.42; µg equiv/g ([7]; 30 min): 1.91 ± 0.278 µg equiv/g; µg equiv/mL ([7]; 30 min): 0.124 ± 0.032 µg equiv/mL; Ratio heart/blood ([7]; 1 hour): 20.09 ± 2.54; µg equiv/g ([7]; 1 hour): 2.09 ± 0.406 µg equiv/g; µg equiv/mL ([7]; 1 hour): 0.096 ± 0.008 µg equiv/mL; Ratio heart/blood ([7]; 2 hours): 21.90 ± 3.56; µg equiv/g ([7]; 2 hours): 1.4 ± 0.042 µg equiv/g; µg equiv/mL ([7]; 2 hours): 0.086 ± 0.041 µg equiv/mL; µg equiv/g ([7]; 4 hours): 1.25 ± 0.248 µg equiv/g; µg equiv/mL ([7]; 4 hours): 0.054 ± 0.013 µg equiv/mL; Ratio heart/blood ([7]; 4 hours (maximum), p-toluenesulfonate, 0.91 mg/kg, 240 min): 27.15 ± 4.30 and 27.15; Ratio heart/blood ([7]; 6 hours): 18.62 ± 2.77; µg equiv/g ([7]; 6 hours): 0.863 ± 0.067 µg equiv/g; µg equiv/mL ([7]; 6 hours): 0.048 ± 0.007 µg equiv/mL; Ratio heart/blood ([7]; 8 hours): 15.12 ± 2.69; µg equiv/g ([7]; 8 hours): 0.652 ± 0.116 µg equiv/g; µg equiv/mL ([7]; 8 hours): 0.048 ± 0.012 µg equiv/mL; concentration of drug in heart tissue ([7]; after 8 h): 0.65 μg equiv/g

**Q.** Which IC50 [6] does the source give for `Cc1c(C)c2c(c(C)c1O)CCC(C)(C(=O)O)O2` (centres unmarked) [Trolox, 3,4dihydro-6-hydroxy-2,5,7,8-tetramethyl-2H-1-benzopyrane-2-carboxylic acid, reference compound] here?
**A.** 105 ± 8 µM

**Q.** And the IC50 [2, 8]?
**A.** 28 µM

**Q.** What about the “protection of α1 Pi (Relative PC50 column)” value (human α1 Pi; at 1 mM) of the same compound?
**A.** Inactive at 1 mM
